Results as given in paper PMC4997821, “The Lantibiotic NAI-107 Efficiently Rescues Drosophila melanogaster from Infection with Methicillin-Resistant Staphylococcus aureus USA300” (Antimicrobial Agents and Chemotherapy, 2016).
Values after ≈ are worked out from the molar mass of the structure shown. Where a name gives a salt, the structure may show the parent alone. Read-outs that look alike come from different tables or passages of the source. Residues, ends and D or L forms follow the SMILES beside them.

Legend:
[1] = tested on: S. aureus 8325-4; experiment: microbe, parasite or virus in culture; format: cell-based, Staphylococcus aureus
Description: (§1) S. aureus strains 8325-4 ([35]) and USA300 ([36]) were used as indicated for the individual experiments. Bacterial cultures were grown in cation-adjusted Mueller-Hinton broth (MHB-II) at the indicated temperature.
(§2) MICs of all tested compounds were determined according to protocols using broth microdilution methodology ([46]), with minor modifications. S. aureus was grown in 10 ml MHB-II overnight at 37°C with shaking and then diluted 1:100 in fresh MHB-II and grown to an OD600 of 0.2 to 0.4. Cultures were then diluted 1:10 and grown to an OD600 of 0.2 to 0.4. These steps were performed to ensure balanced exponentially growing cultures as explained above. Finally, cultures were diluted to 1 × 10^6 CFU ml^−1 and further diluted 1:1 in microtiter plates in MHB-II with drug, leading to a final inoculum of 5 × 10^5 CFU ml^−1. MICs were determined in triplicate, and if more than one value was found, the highest was set as the MIC to keep the calculations conservative.

[2] = tested on: S. aureus 8325-4; experiment: Drosophila injection assay, survival of infected flies; format: in vivo, Drosophila melanogaster; details: >1,000× MIC, injection 3 h postinfection, 70-h period
Description: (§3) Injection assays were performed as previously described ([33]) by using a Nanoject-II microinjecter, but with minor modifications in the preparation of bacterial inoculums to obtain balanced cultures, as explained above. Flies were reared on standard Bloomington formulation at 25°C under a 12-h–12-h light-dark cycle and constant humidity. Adult Oregon R male flies (4 to 7 days old) were used for all injection experiments. Initial experiments with strain 8325-4 were performed in duplicate, with groups of 25 to 30 animals in each experiment. For USA300, experiments were performed in triplicate, except for the nisin experiment, which was done only in duplicate. The inoculum was prepared by resuspending cells in 10 mM MgSO4 vehicle (VEH) to an OD600 of 0.06 and was kept on ice, giving an inoculum dose of 100 to 450 CFU (8325-4) or 200 to 700 CFU (USA300) in the flies after injection of 18.4 nl. […] After injection of bacteria, flies were kept at 29°C and monitored for 48 to 96 h to determine mortality. […] It is important that when drug concentrations were calculated, we performed a rough approximation of the fluid content of a fly. Fly fluid content was measured by drying out 10 groups of 50 flies each and comparing dry weight to wet weight. […]

[3] = tested on: Drosophila melanogaster; experiment: Survival of uninfected control flies injected with VEH and drug; format: in vivo
Description: Injection assays were performed as previously described ([33]) by using a Nanoject-II microinjecter, but with minor modifications in the preparation of bacterial inoculums to obtain balanced cultures, as explained above. Flies were reared on standard Bloomington formulation at 25°C under a 12-h–12-h light-dark cycle and constant humidity. Adult Oregon R male flies (4 to 7 days old) were used for all injection experiments. Initial experiments with strain 8325-4 were performed in duplicate, with groups of 25 to 30 animals in each experiment. For USA300, experiments were performed in triplicate, except for the nisin experiment, which was done only in duplicate. The inoculum was prepared by resuspending cells in 10 mM MgSO4 vehicle (VEH) to an OD600 of 0.06 and was kept on ice, giving an inoculum dose of 100 to 450 CFU (8325-4) or 200 to 700 CFU (USA300) in the flies after injection of 18.4 nl. Bacterial and VEH injections were administered in the soft tissue surrounding the front legs, and drug treatment was administered in the lower thorax at 3 h postinfection. After injection of bacteria, flies were kept at 29°C and monitored for 48 to 96 h to determine mortality. Drug delivery was performed at the concentrations indicated for individual experiments. Flies which died within 3 h postinjection were considered to have died from handling and were disregarded. It is important that when drug concentrations were calculated, we performed a rough approximation of the fluid content of a fly. Fly fluid content was measured by drying out 10 groups of 50 flies each and comparing dry weight to wet weight. […] For simplicity and because we assumed that the compounds would not be distributed to all fluids, we used 0.5 μl fluid as our measure for calculating drug concentrations in the flies. Further, we assumed a rapid distribution of the compound in the open circulatory system of Drosophila and a slow clearance of the compounds by Malpighian tubules. Therefore, drug concentrations are given as the highest concentrations obtained, in multiples of the MIC.
Plotting of data was performed using GraphPad Prism 5. All in vivo survival plots were created using Kaplan-Meier analysis of pooled data for repetitive experiments. Statistical analysis was carried out with the log rank (Mantel-Cox) test for comparison of survival curves. Experiments with P values of <0.05 were considered to be significant and are stated in Results. Statistical analysis was performed on the counts of CFU per fly for the different treatment groups by using one-way analysis of variance (ANOVA) (Kruskal-Wallis test) with Dunn's multiple-comparison test for comparison of individual groups. Relevant statistical results are stated in Results.

[4] = tested on: Drosophila melanogaster; experiment: Adverse behavioral response (paralysis) after injection; format: in vivo; details: flies injected with high concentrations (data not shown); uncoordinated movements, inability to walk or fly
Description: as §3

[5] = tested on: S. aureus USA300 (MRSA); experiment: MIC testing, broth microdilution; format: cell-based; details: Staphylococcus aureus
Description: as §1, §2

[6] = tested on: MRSA USA300; experiment: Drosophila injection assay, survival of infected flies; format: in vivo, Drosophila melanogaster; details: 10× MIC, 3 h postinfection, 96-h period
Description: as §3

[7] = tested on: S. aureus USA300; experiment: Bacterial titers (CFU per fly) after treatment; format: in vivo, Drosophila melanogaster; details: USA300-infected flies, treatment 3 h postinfection
Description: The growth rates of S. aureus strains were examined at 37°C in vitro to determine the growth period required to obtain balanced cultures, here defined as cultures grown exponentially for no fewer than 6 generations. Prior to injection of bacteria into the in vivo fly model, the inoculums were prepared as balanced cultures grown at 37°C. Since flies used for in vivo infections were kept at 29°C, the bacterial in vitro generation time was also determined at this temperature. In vitro growth rates were defined for growth in MHB-II by measurements of the optical density at 600 nm (OD600) at 10-min intervals. Furthermore, we determined the in vivo generation time based on CFU per animal by counting the CFU at various time points by homogenizing flies infected with bacteria and plating the homogenates on mannitol salt agar (MSA). This was performed in triplicate experiments; 3 individual flies were crushed in phosphate-buffered saline (PBS), and 10× dilution series were prepared, from which 10 μl each was spot plated on MSA in triplicate. The mean value for each experiment was determined as the number of CFU per fly and plotted. […] It should also be noted that drug treatment was performed at 3 h postinfection and that the number of CFU per fly for this time point was determined prior to treatment. […]

[8] = broth microdilution, MHB-II, final inoculum 5 × 10^5 CFU ml^−1, triplicate, highest value set as MIC
[9] = calculated from MIC in μg ml^−1 with the mol wt of the table, read-out: MIC (μM) 8325-4
[10] = 8325-4, read-out: MIC (μM) 8325-4
[11] = at the concentrations tested, not given

## CC1(C)S[C@@H]2[C@H](NC(=O)[C@H](N)c3ccccc3)C(=O)N2[C@H]1C(=O)O [Ampicillin, Ampicillin sodium salt, reference compound]
[1]; Staphylococcus aureus, 83254, broth microdilution, MHB-II, final inoculum 5 × 10^5 CFU ml^−1, triplicate, highest value set as MIC, read-out: MIC (μg ml^−1) 8325-4
  MIC: 0.01 µg/mL
[1]; Staphylococcus aureus, 83254, calculated from MIC in μg ml^−1 with the mol wt of the table, read-out: MIC (μM) 8325-4
  MIC: 2.86 µM
[2]
  Effect on survival of 8325-4-infected flies: efficiently promoted survival
[3]; >1,000× MIC, 70-h period
  Effect on survival of control animals: no lethal effects on control animals

## CC[C@H](C)[C@H](NC(=O)[C@H](Cc1c[nH]c2ccccc12)NC(=O)[C@H](CCCNC(=N)N)NC(=O)[C@H](Cc1c[nH]c2ccccc12)NC(=O)[C@H](Cc1c[nH]c2ccccc12)NC(=O)[C@H](CCCNC(=N)N)NC(=O)[C@H](CCCCN)NC(=O)[C@H](Cc1c[nH]c2ccccc12)NC(=O)[C@@H](N)CCCNC(=N)N)C(N)=O [GN-2] (H-RWKRWWRWI-NH2)
[1]; [8]
  MIC (μg ml^−1) 8325-4: 8 µg/mL (≈ 5.44 µM)
[1]; [9]
  MIC: 5.43 µM
[4]
  Adverse behavioral response that may indicate neurotoxicity: partially paralyzed for up to 10 h postinjection

## CC(C)C[C@H](NC(=O)[C@H](Cc1c[nH]c2ccccc12)NC(=O)[C@H](CCCNC(=N)N)NC(=O)[C@H](Cc1c[nH]c2ccccc12)NC(=O)[C@H](Cc1c[nH]c2ccccc12)NC(=O)[C@H](CCCCN)NC(=O)[C@H](CCCCN)NC(=O)[C@H](Cc1c[nH]c2ccccc12)NC(=O)[C@@H](N)CCCNC(=N)N)C(N)=O [GN-4] (H-RWKKWWRWL-NH2)
[1]; [8]
  MIC (μg ml^−1) 8325-4: 4 µg/mL (≈ 2.77 µM)
[1]; [9]
  MIC: 2.77 µM
[3]; 10× MIC in fly, compared with VEH-injected flies
  Effect on survival of control animals: no detrimental effects on survival of flies
[4]
  Adverse behavioral response that may indicate neurotoxicity: partially paralyzed for up to 10 h postinjection

## CC(C)C[C@H](NC(=O)[C@H](Cc1c[nH]c2ccccc12)NC(=O)[C@H](Cc1c[nH]c2ccccc12)NC(=O)[C@H](CCCCN)NC(=O)[C@H](Cc1c[nH]c2ccccc12)NC(=O)[C@H](CCCNC(=N)N)NC(=O)[C@H](CCCNC(=N)N)NC(=O)[C@H](Cc1c[nH]c2ccccc12)NC(=O)[C@@H](N)CCCNC(=N)N)C(N)=O [HHC-9] (H-RWRRWKWWL-NH2)
[1]; 8325-4
  MIC (μg ml^−1) 8325-4: 4 µg/mL (≈ 2.72 µM)
[1]; [10]
  MIC: 2.71 µM
[3]; [11]
  Effect on survival of control animals: no obvious detrimental effects on survival

## N=C(N)NCCC[C@H](NC(=O)[C@H](CCCNC(=N)N)NC(=O)[C@H](Cc1c[nH]c2ccccc12)NC(=O)[C@H](Cc1c[nH]c2ccccc12)NC(=O)[C@H](CCCCN)NC(=O)[C@H](Cc1c[nH]c2ccccc12)NC(=O)[C@H](Cc1c[nH]c2ccccc12)NC(=O)[C@H](CCCNC(=N)N)NC(=O)[C@@H](N)CCCCN)C(N)=O [HHC-36] (H-KRWWKWWRR-NH2)
[1]; 8325-4
  MIC (μg ml^−1) 8325-4: 8 µg/mL (≈ 5.38 µM)
[1]; [10]
  MIC: 5.38 µM
[3]; [11]
  Effect on survival of control animals: no obvious detrimental effects on survival

## CN[C@H](CC(C)C)C(=O)N[C@H]1C(=O)N[C@@H](CC(N)=O)C(=O)N[C@H]2C(=O)N[C@H]3C(=O)N[C@H](C(=O)N[C@H](C(=O)O)c4cc(O)cc(O)c4-c4cc3ccc4O)[C@H](O)c3ccc(c(Cl)c3)Oc3cc2cc(c3O[C@@H]2O[C@H](CO)[C@@H](O)[C@H](O)[C@H]2O[C@H]2C[C@](C)(N)[C@H](O)[C@H](C)O2)Oc2ccc(cc2Cl)[C@H]1O [Vancomycin, vancomycin hydrochloride]
[5]; read-out: MIC (μM) USA300
  MIC: 1.38 µM
[5]; read-out: MIC (μg ml^−1) USA300
  MIC: 2 µg/mL
[6]
  Survival of USA300-infected animals compared with NAI-107 at 100× MIC: equivalent
[3]; [11]
  Effect on survival of control animals: no adverse effect on survival of control animals
[7]
  Bacterial load compared to that with nisin treatment after 24 h: significantly reduced the bacterial load
[7]; CFU per fly at 0, 3, 12, 24 h on MSA
  Proliferation of bacteria inside the animals: clearly disrupted the proliferation of bacteria
